Assay [1] deals with T1, I-A^g7 (Mus musculus, UniProt P04228+Q31135).
T1 sequence (P04228 24-256): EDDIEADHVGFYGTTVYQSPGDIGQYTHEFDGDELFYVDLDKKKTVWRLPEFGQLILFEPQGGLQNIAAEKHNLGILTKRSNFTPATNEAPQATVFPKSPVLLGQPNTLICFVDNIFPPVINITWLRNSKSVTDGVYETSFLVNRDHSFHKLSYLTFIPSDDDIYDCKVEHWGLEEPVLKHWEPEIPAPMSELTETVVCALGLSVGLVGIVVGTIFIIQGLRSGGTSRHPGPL
T1 sequence (Q31135 1-263): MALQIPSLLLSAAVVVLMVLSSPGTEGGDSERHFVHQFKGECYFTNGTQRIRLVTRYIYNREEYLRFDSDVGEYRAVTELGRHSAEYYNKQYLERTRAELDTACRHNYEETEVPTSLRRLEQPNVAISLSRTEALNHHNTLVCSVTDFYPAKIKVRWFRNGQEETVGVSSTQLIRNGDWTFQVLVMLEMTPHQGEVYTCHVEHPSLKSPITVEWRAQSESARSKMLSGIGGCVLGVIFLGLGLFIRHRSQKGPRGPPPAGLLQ
In kind it is binding.

For assay [2], the target named is I-A^k (Mus musculus, UniProt P01910+P06343). Briefly: Peptide-binding assay on soluble I-A^k.
Assay [3] deals with ACP T-cell hybridomas. Briefly: T-cell hybridoma reactivity with nonamers spanning PI-1. The note with it: eight ACP T-cell hybridomas tested; all negative. In kind it is cell-based, mouse.

The source of these data is publication PMC2453633 (Diabetes, 2008).

As a reminder, the IC50 is the concentration needed to halve the response being measured. The low end stands for greater potency in that assay, the high end for weaker potency in that assay.

Peptide text beside a SMILES is read from it.

For `CC(C)[C@H](NC(=O)[C@H](CCCCN)NC(=O)[C@H](CCCCN)NC(=O)CN)C(=O)N[C@@H](C)C(=O)N[C@H](C(=O)N[C@H](C(=O)N[C@H](C(=O)N[C@@H](Cc1c[nH]cn1)C(=O)N[C@@H](C)C(=O)NCC(=O)N[C@@H](Cc1ccc(O)cc1)C(=O)NCC(=O)O)C(C)C)[C@@H](C)O)[C@@H](C)O` [MIME, reference compound] (H-GKKVATTVHAGYG-OH), it took 1 µM to reach half-maximal inhibition in assay [1] (IC50).
In the case of `CC(C)C[C@H](NC(=O)[C@H](C)NC(=O)[C@H](CC(C)C)NC(=O)[C@@H](NC(=O)[C@H](CCC(N)=O)NC(=O)[C@H](CC(C)C)NC(=O)[C@H](CC(=O)O)NC(=O)CNC(=O)[C@@H]1CCCN1C(=O)[C@@H](N)CO)[C@@H](C)O)C(=O)N[C@@H](CCC(=O)O)C(=O)N[C@H](C(=O)N[C@@H](C)C(=O)N[C@@H](CCCNC(=N)N)C(=O)N[C@@H](CCC(N)=O)C(=O)N[C@@H](CCCCN)C(=O)N[C@@H](CCCNC(=N)N)C(=O)NCC(=O)O)C(C)C` [PI-1(47–64)] (H-SPGDLQTLALEVARQKRG-OH), the IC50 in assay [1] was found to be 98.9 µM; in assay [2], 4.8 µM.
Turning to `CC(C)C[C@H](NC(=O)[C@H](C)NC(=O)[C@H](CC(C)C)NC(=O)[C@@H](NC(=O)[C@H](CCC(N)=O)NC(=O)[C@H](CC(C)C)NC(=O)[C@H](CC(=O)O)NC(=O)CN)[C@@H](C)O)C(=O)N[C@@H](CCC(=O)O)C(=O)N[C@H](C(=O)N[C@@H](C)C(=O)N[C@@H](CCCNC(=N)N)C(=O)N[C@@H](CCC(N)=O)C(=O)O)C(C)C` [PI-1(49–61)] (H-GDLQTLALEVARQ-OH), in assay [1], the IC50 is 20 µM.
For the compound `CC(C)C[C@H](NC(=O)[C@H](C)NC(=O)[C@H](CC(C)C)NC(=O)[C@@H](NC(=O)[C@H](CCC(N)=O)NC(=O)[C@H](CC(C)C)NC(=O)[C@H](CC(=O)O)NC(=O)CNC(=O)[C@H](C)NC(=O)CN)[C@@H](C)O)C(=O)N[C@@H](CCC(=O)O)C(=O)N[C@H](C(=O)N[C@@H](C)C(=O)N[C@@H](CCC(N)=O)C(=O)N[C@@H](CCC(N)=O)C(=O)N[C@@H](CCCCN)C(=O)N[C@@H](CCCNC(=N)N)C(=O)NCC(=O)O)C(C)C` [PI-2(49–66)] (H-GAGDLQTLALEVAQQKRG-OH), the IC50 came to 136 µM in assay [1] and 2.1 µM in assay [2].
LQTLALEVA: in assay [3], the “T-cells reactive with nonamer (of T-cells tested)” value is reported as 0 of 8.
For the compound QTLALEVAR, the “T-cells reactive with nonamer (of T-cells tested)” value in assay [3] is 0 of 8.
Still for that read-out and setting: to TLALEVARQ belongs 0 of 8.
